Where a name gives a salt, the structure may show the parent alone.
Experiments:
Assay in all cases: In vitro antibacterial activity, MIC by broth dilution in 96-well trays
Assay type in all cases: cell-based
P.aeruginosa = conditions: Pseudomonas aeruginosa
Procedure: (§1) The in vitro antibacterial activity of the following compounds:
(§2) The diluted agents are dispensed in 100 µl amounts into the wells of a 96-well tray and used immediately or frozen at -10 to -70°C until needed. Using an automated inoculator, 1.5 µl of a 10^-2 dilution of an overnight culture is added to each well of the tray. The tops of the trays are then sealed using transparent tape and incubated overnight at 37°C. The trays are examined with the aid of a viewer. The lowest concentration at which no growth is observed is considered to be the minimum inhibitory concentration (MIC). [formula] [formula] [formula] [formula] [formula] [formula] [formula] [formula] [formula] [formula] [formula]

S. aureus = conditions: Staphylococcus aureus
Procedure: as §1, §2

S. faecalis = conditions: Enterococcus faecalis; S. faecalis C1
Procedure: as §1, §2

S. pneumoniae = conditions: Streptococcus pneumoniae
Procedure: as §1, §2

S. pyogenes = conditions: Streptococcus pyogenes
Procedure: as §1, §2

| SMILES | MIC (P.aeruginosa; P.aeruginosa strain 503-56) [µg/mL] | MIC (P.aeruginosa; P.aeruginosa strain 503-820) [µg/mL] | MIC (P.aeruginosa; P.aeruginosa strain 5700) [µg/mL] | MIC (P.aeruginosa; P.aeruginosa strain 5712) [µg/mL] | MIC (P.aeruginosa; P.aeruginosa strain 6148B) [µg/mL] | MIC (P.aeruginosa; P.aeruginosa strain 8710) [µg/mL] | MIC (P.aeruginosa; P.aeruginosa strain 8780) [µg/mL] | MIC (P.aeruginosa; P.aeruginosa strain B) [µg/mL] | MIC (P.aeruginosa; P.aeruginosa strain POW 151) [µg/mL] | MIC (P.aeruginosa; P.aeruginosa strain Stone 130) [µg/mL] | MIC (S. aureus; S. aureus strain 1059B) [µg/mL] | MIC (S. aureus; S. aureus strain Giorgio) [µg/mL] | MIC (S. aureus; S. aureus strain Smith) [µg/mL] | MIC (S. faecalis) [µg/mL] | MIC (S. pneumoniae; S. pneumoniae strain 6301) [µg/mL] | MIC (S. pneumoniae; S. pneumoniae strain 6302) [µg/mL] | MIC (S. pneumoniae; S. pneumoniae strain SC) [µg/mL] | MIC (S. pyogenes; S. pyogenes strain 4) [µg/mL] | MIC (S. pyogenes; S. pyogenes strain 503-782) [µg/mL] |
| --- | --- | --- | --- | --- | --- | --- | --- | --- | --- | --- | --- | --- | --- | --- | --- | --- | --- | --- | --- |
| CC1(C)S[C@@H]2[C@H](N=CN3CCC(Cc4ncc[nH]4)CC3)C(=O)N2[C@H]1C(=O)O [Q, [2S-(2alpha,5alpha,6beta)]-6-[[[4-(1H-imidazol-2-yl-methyl)-1-piperidinyl]methylene]amino]-3,3-dimethyl-7-oxo-4-thia-1-azabicyclo[3.2.0]heptane-2-carboxylic acid hydrochloride] | 64 | 128 | 0.125 | > 128 | 128 | 128 | > 128 | 0.25 | > 128 | > 128 | 128 | 8 | 8 | 128 | 1 | 2 | 2 | 1 | 128 |
| CC1(C)S[C@@H]2[C@H](N=CN3CCC(CCCn4ccnc4CO)CC3)C(=O)N2[C@H]1C(=O)O [R, [2S-(2alpha,5alpha,6beta)]-6-[[[4-[3-[2-(hydroxy-methyl)-1H-imidazol-1-yl]propyl-1-piperidinyl]-methylene]amino]-3,3-dimethyl-7-oxo-4-thia-1-azabicyclo[3.2.0]heptane-2-carboxylic acid hydrochloride 1.1 molar hydrate] | > 128 | 128 | > 128 | > 128 | 128 | > 128 | > 128 | 128 | > 128 | > 128 | 64 | 8 | 8 | 128 | 1 | 1 | 0.5 | 0.5 | 128 |
| CN(C)C=Nc1nccn1CCCC1CCN(C=N[C@@H]2C(=O)N3[C@@H]2SC(C)(C)[C@@H]3C(=O)O)CC1 [S, [2S-(2alpha,5alpha,6beta)]-6-[[[4-[3-[2-[[(dimethylamino)methylene]amino]-1H-imidazol-1-yl]propyl]-1-piperidinyl]methylene]amino]-3,3-dimethyl-7-oxo-4-thia-1-azabicyclo[3.2.0]heptane-2-carboxylic acid 1.7 molar hydrochloride 2.6 molar hydrate] | > 128 | > 128 | > 128 | > 128 | > 128 | > 128 | > 128 | > 128 | > 128 | > 128 | 64 | 8 | 8 | 128 | 2 | 1 | 0.5 | 0.25 | 128 |

From EP0148283A1, “Novel penicillanic acid derivatives” (F. HOFFMANN-LA ROCHE & CO. Aktiengesellschaft, priority 1983, dated 1985)
